Reference: patent US8859284B2, “Delivery of nanoparticles to neurons” (The United States of America, as represented by the …, priority 2009, dated 2014)
Like-named read-outs stand apart in the source and are kept apart here. Square brackets hold non-standard residues; d marks the D form. Ends that are not written are not given here. Peptide text beside a SMILES is read from it. * marks the point of attachment. Palmitoyl = CCCCCCCCCCCCCCCC(=O)*; Dap = NC[C@H](N)C(=O)O; Aib = CC(C)(N)C(=O)O

Legend:
HEK 293T/17 cells [1] = system: HEK 293T/17 cells
Protocol: Cellular toxicity was assessed using the CellTiter 96 Cell Proliferation Assay (Promega, Madison Wis.) according to the manufacturer's instructions. This assay is based upon the conversion of a tetrazolium substrate to a formazan product by viable cells at the assay end point (see reference 24). Cells (1×10^4 cells/well) were cultured in 96-well microtiter plates in complete growth medium in the presence of increasing concentrations of QDs, free peptide or polymer, or QDs in complex with peptide or polymer. In each case, the materials were incubated with the cells for the time required for efficient QD uptake. The materials were subsequently replaced with complete growth medium and the cells were cultured for 72 hours.

HeLa cells = assay: QD uptake and endosomal escape in HeLa cells; assay type: cell-based; conditions: 163 HeLa cells, Palm-1 conjugated to a QD
Protocol: The Palm-1 peptide was also tested in HeLa cells, and found to be very effective in promoting endosomal escape.

HEK 293T/17 cells [2] = assay: Cellular delivery of QDs, intracellular fate by fluorescence microscopy; conditions: summary of QD delivery strategies; some agents also tested in COS-1
Protocol: Human embryonic kidney (HEK 293T/17) and African green monkey kidney (COS-1) cell lines (ATCC, Manassas, Va.) were cultured in complete growth medium (Dulbecco's Modified Eagle's Medium (DMEM; purchased from ATCC)) supplemented with 1% (v/v) antibiotic/antimycotic and 10% (v/v) heat inactivated fetal bovine serum (ATCC). Cells were cultured in T-25 flasks and incubated at 37° C. under 5% CO2 atmosphere and a subculture was performed every 3-4 days (see reference 13).
The QD delivery experiments were performed on adherent cells seeded into the wells of Lab-Tek 8-well chambered #1 borosilicate coverglass (Nalge Nunc, Rochester, N.Y.) coated with 2 μg/mL fibronectin. For electroporation and nucleofection, adherent cells were harvested by trypsinization prior to performing QD delivery to cells in suspension. Cells were then seeded to chambered coverglass wells and imaged after cell attachment. The endosomal marker AlexaFluor647-transferrin was included as indicated in the text. For imaging, cells were washed with phosphate buffered saline (PBS, 137 mM NaCl, 10 mM phosphate, 3 mM KCl, pH 7.4), fixed with 3.7% paraformaldehyde in PBS and nuclei were stained with DAPI (Sigma) unless otherwise indicated.
For electroporation, cells were harvested by trypsinization and recovered for 1 hour in complete growth medium, pelleted, and resuspended in PBS. 510 nm DHLA-PEG QDs (0.5 μM final concentration) were mixed with 1×10^4 cells to a final volume of 100 μL in PBS in a 0.2 mm electroporation cuvette. The cuvette was subjected to 100 V for a 20 ms pulse using a GenePulser XCell electroporator (Bio-Rad, Hercules, Calif.). Cells were resuspended in complete growth medium, seeded into fibronectin-coated 8-well chambered coverglass, fixed and imaged after 24 hrs. For nucleofection delivery, 1×10^6 cells were harvested and resuspended in 100 μL of NUCLEOFECTOR reagent (Amaxa, Gaithersburg, Md.). 510 nm DHLA-PEG QDs were included at a final concentration of 0.4 μM. The cell/QD/reagent mixture was pulsed in the NUCLEOFECTOR using a preset protocol adapted for each specific cell line (20, 21). Cells were cultured and imaged as described for electroporation.
The INFLUX cell-loading reagent mediates the intracellular release of materials internalized via pinocytic vesicles by delivering the materials to cells in a hypertonic medium followed by the transfer of the cells to a hypotonic medium to induce vesicle disruption (see reference 22). 510 nm DHLA-PEG QDs were diluted to a final concentration of 300-800 nM in the supplied hypertonic delivery media according to manufacturer's instructions and incubated on the cells for 30 min at 37° C. The hypertonic medium was exchanged for hypotonic medium (serum-free culture medium diluted by 40% with deionized water) and incubated on the cells for 3 min. The cells were then recovered in complete growth medium for 30 min and cultured for various lengths of time prior to washing and fixation for imaging.
520 nm QDs with a 1:1 mixed surface of DHLA:DHLA-PEG were incubated with LIPOFECTAMINE 2000 for 20 min in serum free medium at a ratio of 1 μL LIPOFECTAMINE 2000 per 1.5 pmol QD. The complexes, at a final QD concentration of 75 nM, were incubated with the cells for 4 hours, removed and replaced with complete growth medium. The cells were then cultured for 24-36 h prior to washing and fixation.
PEI was incubated with 520 nm mixed surface DHLA:DHLA-PEG QDs in serum free medium at a ratio of 10 μg PEI per 1 pmol QD for 15 min. […] The complexes were then diluted into serum free media to a final QD concentration of 75-100 nM, incubated with cells for 2 h and removed. Cells were then cultured in complete media for 24-36 h, washed and fixed.
A stock solution of 520 nm DHLA:DHLA-PEG QDs (1 μM in 0.1 M borate buffer, pH 8.9) was diluted to 0.5 μM in HEPES (4-(2-hydroxyethyl)-1-piperazineethanesulfonic acid, pH 8.2).

COS-1 cells = assay: Cellular uptake and endosomal escape of QD-peptide assemblies, fluorescence microscopy; assay type: cell-based, African green monkey; conditions: COS1 cells
Protocol: (§1) Merged images were generated using Adobe PhotoShop.
The peptide assemblies were incubated with COS-1 cells for 1 hr, removed, and the cells were subsequently cultured for 24 hr prior to fixation. An AlexaFluor 647-transferrin (Tf) conjugate was included during the incubation to label the vesicles of the endocytic pathway. Cell nuclei were stained with DAPI.

[3] = biological target: T1, Palmitoyl Protein Thioesterase 1 (PPT1) (Homo sapiens, UniProt P50897); conditions: competitive inhibitors; acidic environments; cited from earlier work
T1 sequence (P50897 28-306): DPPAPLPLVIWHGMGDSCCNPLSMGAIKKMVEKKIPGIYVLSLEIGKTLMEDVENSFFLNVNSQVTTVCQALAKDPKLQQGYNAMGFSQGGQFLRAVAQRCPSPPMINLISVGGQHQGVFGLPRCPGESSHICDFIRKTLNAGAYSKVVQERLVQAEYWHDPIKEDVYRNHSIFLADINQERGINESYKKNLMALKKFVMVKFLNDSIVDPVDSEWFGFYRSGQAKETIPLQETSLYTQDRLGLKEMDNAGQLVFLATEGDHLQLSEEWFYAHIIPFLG

[4] = system: COS-1 and HEK 293T/17 cells; assay: Cellular delivery of QDs, result stated for both cell lines together; assay type: cell-based, African green monkey; Human; conditions: for intracellular distribution of QDs: both cell lines; for degree of endocytic uptake: compared with Palm-1, 72 h observation
Excerpt: as §1

HEK 293T/17 cells [5] = assay: FRET monitoring of intracellular stability of polyhistidine-QD association; assay type: cell-based, Human; conditions: over three days, no QDs present
Protocol: as §1
To investigate this issue, QD-peptide conjugates were prepared that engaged in FRET and their intracellular interactions were monitored over time. 510 nm DHLA-capped QDs were first assembled with an average of ˜2 Cy3-labeled His6-peptides and then the CPP was added to form the full conjugate (schematic in FIG. 3A). Due to the peptide's small size and proximity of the Cy3 acceptor to the nanocrystal surface, this valence results in a ca. 40% quenching of the QD PL by FRET. The resulting conjugates were delivered to HEK 293T/17 cells and the cells were cultured for three days. QD-donor and Cy3-acceptor FRET interactions over time within the cells were measured by exciting the QD and collecting side-by-side split fluorescence images using the DualView system and deconvoluting the subsequent intensity data. […] When the Cy3/QD emission ratio (normalized and corrected for direct Cy3-acceptor excitation) was calculated a gradual decrease was observed over time, culminating in a 36% decrease over three days (FIG. 3C). […] When Cy3 was delivered to the endosomes as a Cy3-labeled transferrin conjugate (no QDs present), the fluorescence output of the dye decreased approximately 34% over the same time period, in excellent agreement with the decrease observed in the above QD-CPP-Cy3-labeled peptide constructs (FIG. 3D). […]

HEK 293T/17 cells [6] = conditions: cited from earlier work

Molecule: WGDapaVKIKK(P)9GG(H)6 [JB577]
- Toxicity (HEK 293T/17 cells [1]): minimally toxic
- QD uptake (HeLa cells): 90%
- endosomal escape of the cells with uptake (HeLa cells): 86%
- endosomal escape of the total (HeLa cells): 77%
- Quantum Dot Fate (HEK 293T/17 cells [2]): Cytosolic, QDs dispersed
- % Escape in cells with uptake (COS-1 cells; QD-peptide assemblies): 77%
- Overall uptake/escape: uptake (COS-1 cells; first word of the cell): High
- Overall uptake/escape: escape (COS-1 cells; second word of the cell): high

Molecule: GDap(Pal)VKIKK
- inhibition of palmitoyl thioesterase [3]: low micromolar range

Molecule: CC(C)C[C@H](NC(=O)CNC(=O)[C@H](Cc1c[nH]c2ccccc12)NC(=O)[C@H](Cc1c[nH]cn1)NC(=O)[C@H](Cc1c[nH]cn1)NC(=O)[C@H](Cc1c[nH]cn1)NC(=O)[C@H](Cc1c[nH]cn1)NC(=O)[C@H](Cc1c[nH]cn1)NC(=O)[C@@H](N)Cc1c[nH]cn1)C(=O)N[C@@H](C)C(=O)NC(C)(C)C(=O)N[C@@H](CO)C(=O)NCC(=O)N1CCC[C@H]1C(=O)N[C@@H](CCCCN)C(=O)N[C@@H](CCCCN)C(=O)N[C@@H](CCCCN)C(=O)N[C@@H](CCCNC(=N)N)C(=O)N[C@@H](CCCCN)C(=O)N[C@H](C(=O)O)C(C)C [NLS peptide, reference compound] (H-HHHHHHWGLA[Aib]SGPKKKRKV-OH)
- Toxicity (HEK 293T/17 cells [1]): minimally toxic

Molecule: WGDapaVKIKKGL(A)4GG(H)6 (WG[Dap](Palmitoyl)VKIKKGLAAAAGGHHHHHH) [Palm-2, No (Pro)9, short linker]
- intracellular distribution of QDs [4]: remained completely sequestered within endosomes
- degree of endocytic uptake [4]: significant reduction in the degree of endocytic uptake

Molecule: Cy3-labeled transferrin conjugate: Cy3 delivered to endosomes as labeled transferrin, no QDs
- decrease of fluorescence output of the Cy3 dye (HEK 293T/17 cells [5]): approximately 34%

Molecule: AcG(Pal)DapVKIKK
- inhibition of palmitoyl thioesterase [3]: low micromolar affinity

Molecule: R9GGLA(Aib)SGWKH6 [CPP peptide]
- Toxicity (HEK 293T/17 cells [6]): minimally toxic
- Quantum Dot Fate (HEK 293T/17 cells [2]): Endosomal, QDs punctate

Molecule: WGDapaVKIKKGLPAAGG(H)6 [Palm-3]
- intracellular distribution of QDs [4]: remained completely sequestered within endosomes
- degree of endocytic uptake [4]: significant reduction in the degree of endocytic uptake
